In US20100010100A1, “DERMATOLOGICAL COMPOSITIONS WITH ANTI-AGING AND SKIN EVEN-TONING PROPERTIES” (priority 2008, published 2010):

Tested on: MelanoDerm™ in vitro skin model (MEL-300B melanoderms)
Assay: In vitro skin model test (MelanoDerm skin-lightening, digital image quantification)
Format: cell-based
Settings: for pixel density / lightening: 14 days; for pixel density: pixel content of untreated set at 1.00; for lightening: vs untreated
Procedure: The skin-lightening effect was validated on the in vitro skin model, the MelanoDerm™ carried out by MatTek using MEL-300B melanoderms. This model is very similar in structure and function to the natural skin and has the cell types relevant in the epidermis including the melanocytes, which are responsible for the synthesis of the main pigment melanin. Further information can be found, for example, in http://www.mattek.com/pages/in_vitro_basics. The study was carried out over a period of 14 days at two concentrations, 10 μM and 60 μM. 1% Kojic acid was the positive standard and untreated as negative control.
Digital image quantification was achieved by subtracting a standard background value from the pixel content of regions of identical size. The pixel content of untreated cells was set at 1.00. Treatment with topical 1% kojic acid as a positive control gave pixel density of 0.96 or 4% lightening. Treatment with Duroquinone gave pixel density of 0.82 or 18% lightening at a concentration of 10 μM and 0.60 or 40% lightening at a concentration of 60 μM. Treatment with 2,5,6-trimethyl-3-(4-(trifluoromethyl)phenyl)cyclohexa-2,5-diene-1,4-dione gave pixel density of […] or 34% lightening at a concentration of 60 μM.

| SMILES | pixel density (topical 1% (positive control)) | lightening (topical 1% (positive control)) [%] | effectiveness relative to kojic acid positive standard (60 μM vs 1% kojic acid) | pixel density (60 μM) | lightening (60 μM) [%] | effectiveness relative to kojic acid positive standard (10 μM vs 1% kojic acid) | pixel density (10 μM) | lightening (10 μM) [%] |
| --- | --- | --- | --- | --- | --- | --- | --- | --- |
| O=c1cc(CO)occ1O [kojic acid, reference compound] | 0.96 | 4 |  |  |  |  |  |  |
| CC1=C(C)C(=O)C(c2ccc(C(F)(F)F)cc2)=C(C)C1=O [2,5,6-trimethyl-3-(4-(trifluoromethyl)phenyl)cyclohexa-2,5-diene-1,4-dione] |  |  | ten times as effective | 0.69 | 34 |  |  |  |
| CC1=C(C)C(=O)C(C)=C(C)C1=O [Duroquinone, 2,3,5,6-tetramethylcyclohexa-2,5-diene-1,4-dione] |  |  | ten times as effective | 0.60 | 40 | four and a half times as effective | 0.82 | 18 |
